Patent publication US6660742B2, “Compositions and methods of the use thereof achiral analogues of CC-1065 and the duocarmycins” (priority 2000, dated 2003)
Where two headings read alike, the source gives them in different places.

What was measured:
[1] = test system: SK-MEL-28
Protocol: (§1) The compounds of this invention were also tested against the panel of 60 human cancer cell lines at the National Cancer Institute, Bethesda, Md. […] The cytrotoxicity studies were conducted using a 48 hour exposure, and measuring the optical density of sulforhodamide B-derived color.

[2] = test system: MCF7/ADR-RES; assay: NCI screen, MCF7/ADR-RES (Breast Cancer); type: cell-based, human
Protocol: as §1

[3] = test system: supercoil pBR322 DNA; assay: pBR322 strand nicking assay; type: biochemical
Excerpt: When a compound is covalently bound to a purine-N3 in the minor groove of DNA, the adduct is thermally unstable. It is readily hydrolyzed to produce a DNA strand (2). Consequently, the formation of adenine-N3 (or guanine-N3) alkylation adducts can be detected by thermal conversion of supercoil pBR322 DNA (Form I) to nicked open […] DNA (Form II) as a result of the formation of single strand breaks. These two different forms of pBR322 DNA can then be separated by agarose gel electrophoresis, and the relative amounts of each form can be determined by densitometry of methylene blue stained gels (39). The supercoil form of pBR322 DNA is more compact than the open circular form, and as a result, moves further down the gel towards the positive electrode.
Solutions of the drugs dissolved in N,N-dimethylacetamide (DMA) were made at 0.10 mM concentrations, and were always stored in the refrigerator.
Tris buffer solution at pH 7.4 at 25° C. and 0.010 M was made from Tris HCl (0.661 g), Tris base (0.097 g) diluted to a 100 mL volume with distilled water. Then EDTA-Na2—2H2O (0.186 g) and KCl (3.72 g) were added to the Tris HCl solution and diluted to 500 mL volume with distilled water. A TBE solution was prepared from Carolina Lot #4020602 Electrophoresis buffer 20 times TBE diluted to a volume of three liters with deionized water. The agarose gel was prepared from agarose low EEO (0.32 g) dissolved in TBE buffer (40 mL) and heated in a microwave oven until dissolved.
The pBR322 DNA (100 μg/100 μL) from Pharmacia Biotech was in a buffer (10 mM Tris-HCl pH 7.5, and 1 mM EDTA). The DNA was prepared from plasmid DNA isolated from E. coli HB101 by the alkaline lysate procedure and was purified by Sepharcryl S-100 chromatography followed by CsCl-ethidium bromide centrifugation.
The alkylation samples were prepared by adding DNA (10 μL), Tris-EDTA KCl buffer (18 μL), and compound (2 μL) at 100 μM concentration to Eppendorf tubes. The samples were incubated at 40° C. for 40 h. The samples were removed then centrifuged for one minute. 10% SDS (sodium dodecylsulfate) (2 μL), 50% glycerol (5 μL), and bromophenol blue (2 μL) were added to the samples. The contents of the tubes were mixed with a Vortex mixer then centrifuged to consolidate the samples. The agarose gel was covered with TBE-buffer in the chamber. The samples were loaded onto the agarose gel and run at 40 V for three hours, or when the band were about three/fourths of the way down the gel.
The gel was removed and stained with methylene blue (45 min). At this time, the stained gel was placed in a water chamber overnight. The intensities of each band i.e. Form I and II were determined using densitometry.

[4] = test system: KM12
[5] = test system: RXF 393; assay: NCI screen, RXF 393 (Renal Cancer)
Protocol: as §1

[6] = test system: HOP-92
[7] = test system: OVCAR-8; assay: NCI screen, OVCAR-8 (Ovarian Cancer)
Protocol: The compounds of this invention were also tested against the panel of 60 human cancer cell lines at the National Cancer Institute, Bethesda, Md. (44). The cytrotoxicity studies were conducted using a 48 hour exposure, and measuring the optical density of sulforhodamide B-derived color.

[8] = test system: NCI-H322M
[9] = test system: U251; assay: NCI screen, U251 (CNS Cancer)
Protocol: as §1

[10] = test system: T-47D; assay: NCI screen, T-47D (Breast Cancer); type: cell-based, human
Protocol: as §1

[11] = Log10 Concentration −4.3, 48 hour exposure
[12] = Log10 Concentration −5.3, 48 hour exposure
[13] = Log10 Concentration −6.3, 48 hour exposure
[14] = Log10 Concentration −7.3, 48 hour exposure
[15] = Log10 Concentration −8.3, 48 hour exposure

## O=C(Nc1cc(O)ccc1CCCl)c1cc2cc(NC(=O)c3cc4ccccc4o3)ccc2[nH]1 [Compound 1, 4-(2-Chloroethyl)-3-[5-(5-benzofuran-2-carboxamido)indole-2-carboxamido]phenol]
[1]
  CC50: 21400 nM
[2]; MCF7/ADR-RES
  GI50: 1650 nM
  TGI: 3.79E−06 Molar
[2]; MCF7/ADR-RES, Log10 Concentration −4.0
  Percent Growth: −55%
[2]; MCF7/ADR-RES, Log10 Concentration −5.0
  Percent Growth: −58%
[2]; MCF7/ADR-RES, Log10 Concentration −6.0
  Percent Growth: 80%
[2]; MCF7/ADR-RES, Log10 Concentration −7.0
  Percent Growth: 97%
[2]; MCF7/ADR-RES, Log10 Concentration −8.0
  Percent Growth: 93%
[3]
  Form I DNA (%): 73 ± 2%
  Form II DNA (%): 27 ± 4%
[4]
  GI50: 18800 nM
  Percent Growth: 93%
  TGI: 3.50E−05 Molar
[5]
  GI50: 982 nM
  TGI: 2.18E−06 Molar
[5]; Log10 Concentration −4.0
  Percent Growth: −94%
[5]; Log10 Concentration −5.0
  Percent Growth: −97%
[5]; Log10 Concentration −6.0
  Percent Growth: 50%
[5]; Log10 Concentration −7.0
  Percent Growth: 74%
[5]; Log10 Concentration −8.0
  Percent Growth: 104%
[6]
  GI50: 2620 nM
  TGI: 5.53E−06 Molar
[6]; Log10 Concentration −4.0
  Percent Growth: −92%
[6]; Log10 Concentration −8.0
  Percent Growth: 94%
[7]
  Percent Growth: −61%
[7]; OVCAR-8
  GI50: 1320 nM
  TGI: 3.28E−06 Molar
[7]; OVCAR-8, Log10 Concentration −4.0
  Percent Growth: −63%
[7]; OVCAR-8, Log10 Concentration −6.0
  Percent Growth: 65%
[7]; OVCAR-8, Log10 Concentration −7.0
  Percent Growth: 94%
[7]; OVCAR-8, Log10 Concentration −8.0
  Percent Growth: 94%
[8]
  GI50: 2830 nM
  Percent Growth: 93%
  TGI: 9.60E−06 Molar
[9]
  Percent Growth: 77%
[9]; U251
  GI50: 2410 nM
  TGI: 1.23E−05 Molar
[9]; U251, Log10 Concentration −4.0
  Percent Growth: −71%
[9]; U251, Log10 Concentration −5.0
  Percent Growth: 7%
[9]; U251, Log10 Concentration −7.0
  Percent Growth: 101%

## COC(=O)c1[nH]c2c(O)cc(NC(=O)c3cc4cc(OC)c(OC)c(OC)c4[nH]3)c(CCCl)c2c1C(=O)OC [Compound 22, Dimethyl 4-(2-chloroethyl)-7-hydroxy-5-(5,6,7-trimethoxyindole-2-carboxamido)indole-2,3-dicarboxylate]
[2]; NCI/ADR-RES, 48 hour exposure
  TGI: 8.17E−07 Molar
[2]; NCI/ADR-RES, Log10 Concentration −4.3, 48 hour exposure
  Percent Growth: −41%
[2]; NCI/ADR-RES, Log10 Concentration −5.3, 48 hour exposure
  Percent Growth: −58%
[2]; NCI/ADR-RES, Log10 Concentration −6.3, 48 hour exposure
  Percent Growth: 16%
[2]; NCI/ADR-RES, Log10 Concentration −7.3, 48 hour exposure
  Percent Growth: 77%
[2]; NCI/ADR-RES, Log10 Concentration −8.3, 48 hour exposure
  Percent Growth: 97%
[4]
  TGI: 2.03E−07 Molar
[5]; 48 hour exposure
  TGI: 1.31E−06 Molar
[5]; [11]
  Percent Growth: −65%
[5]; [12]
  Percent Growth: −25%
[5]; [13]
  Percent Growth: 18%
[5]; [14]
  Percent Growth: 57%
[5]; [15]
  Percent Growth: 94%
[6]; 48 hour exposure
  TGI: 2.57E−06 Molar
[6]; [11]
  Percent Growth: −38%
[6]; [12]
  Percent Growth: −5%
[6]; [13]
  Percent Growth: 12%
[6]; [14]
  Percent Growth: 97%
[6]; [15]
  Percent Growth: 101%
[7]; OVCAR-8, 48 hour exposure
  TGI: 2.33E−07 Molar
[7]; OVCAR-8, Log10 Concentration −4.3, 48 hour exposure
  Percent Growth: −64%
[7]; OVCAR-8, Log10 Concentration −5.3, 48 hour exposure
  Percent Growth: −65%
[7]; OVCAR-8, Log10 Concentration −6.3, 48 hour exposure
  Percent Growth: −32%
[7]; OVCAR-8, Log10 Concentration −7.3, 48 hour exposure
  Percent Growth: 65%
[7]; OVCAR-8, Log10 Concentration −8.3, 48 hour exposure
  Percent Growth: 86%
[8]; NCI-H322M, Log10 Concentration −5.3, 48 hour exposure
  Percent Growth: −8%
[10]; Homo sapiens, T47D, 48 h, read-out: LC50
  CC50: > 50000 nM
[10]; Homo sapiens, T47D, T-47D, 48 hour exposure
  GI50: 171 nM
[10]; T-47D, 48 hour exposure
  TGI: >5.00E−05 Molar
[10]; T-47D, Log10 Concentration −4.3, 48 hour exposure
  Percent Growth: 14%
[10]; T-47D, Log10 Concentration −5.3, 48 hour exposure
  Percent Growth: 33%
[10]; T-47D, Log10 Concentration −6.3, 48 hour exposure
  Percent Growth: 29%
[10]; T-47D, Log10 Concentration −7.3, 48 hour exposure
  Percent Growth: 74%
[10]; T-47D, Log10 Concentration −8.3, 48 hour exposure
  Percent Growth: 100%
[9]; U251, 48 hour exposure
  TGI: 8.44E−06 Molar
[9]; U251, Log10 Concentration −4.3, 48 hour exposure
  Percent Growth: −40%
[9]; U251, Log10 Concentration −5.3, 48 hour exposure
  Percent Growth: 12%
[9]; U251, Log10 Concentration −6.3, 48 hour exposure
  Percent Growth: 11%
[9]; U251, Log10 Concentration −7.3, 48 hour exposure
  Percent Growth: 74%
[9]; U251, Log10 Concentration −8.3, 48 hour exposure
  Percent Growth: 89%
